# Test results as given in PMC7730235, “Discovery of a Novel Class of Covalent Dual Inhibitors Targeting the Protein Kinases BMX and BTK” (International Journal of Molecular Sciences, 2020).
# Experiments:
# JAK1 = biological target: T1, JAK1 (Homo sapiens, UniProt P23458); assay: Radiometric kinase assay (Reaction Biology HotSpot); type: biochemical; conditions: five-dose singlicate, [ATP] = 10 μM
# T1 construct: purchased Reaction Biology Corporation
# Method: (§1) If not mentioned differently, in vitro profiling of compounds was performed at Reaction Biology Corporation using the HotSpot™ assay platform.
# TEC = biological target: T2, TEC (Homo sapiens, UniProt P42680); assay: as above; type: biochemical; conditions: [ATP] = 10 μM; for remaining activity at 0.2 µM: 200 nM compound, duplicate mean, read-out: Residual Activity @ 200 nM, TEC
# T2 construct: purchased Reaction Biology Corporation
# T2 sequence (P42680 1-631): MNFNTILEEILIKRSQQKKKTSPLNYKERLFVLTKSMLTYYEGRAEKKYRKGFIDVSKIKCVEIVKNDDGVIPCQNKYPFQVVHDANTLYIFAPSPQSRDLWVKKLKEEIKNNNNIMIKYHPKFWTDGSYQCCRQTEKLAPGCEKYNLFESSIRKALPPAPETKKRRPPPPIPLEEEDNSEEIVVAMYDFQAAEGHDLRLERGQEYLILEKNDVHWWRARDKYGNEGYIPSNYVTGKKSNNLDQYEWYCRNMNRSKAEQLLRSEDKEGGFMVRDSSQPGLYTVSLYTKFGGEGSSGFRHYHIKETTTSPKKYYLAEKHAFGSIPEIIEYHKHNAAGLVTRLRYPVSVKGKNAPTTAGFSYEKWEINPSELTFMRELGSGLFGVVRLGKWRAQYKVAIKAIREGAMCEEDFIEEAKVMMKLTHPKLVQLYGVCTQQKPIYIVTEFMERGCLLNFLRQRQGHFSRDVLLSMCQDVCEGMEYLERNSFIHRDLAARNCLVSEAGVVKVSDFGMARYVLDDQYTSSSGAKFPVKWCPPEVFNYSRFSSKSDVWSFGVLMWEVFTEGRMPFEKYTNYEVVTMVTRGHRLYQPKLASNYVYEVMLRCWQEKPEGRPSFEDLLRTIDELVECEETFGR
# Method: as §1
# JAK2 = biological target: T3, JAK2 (Homo sapiens, UniProt O60674); assay: as above; type: biochemical; conditions: five-dose singlicate, [ATP] = 10 μM
# T3 construct: purchased Reaction Biology Corporation
# T3 sequence (O60674 whole entry): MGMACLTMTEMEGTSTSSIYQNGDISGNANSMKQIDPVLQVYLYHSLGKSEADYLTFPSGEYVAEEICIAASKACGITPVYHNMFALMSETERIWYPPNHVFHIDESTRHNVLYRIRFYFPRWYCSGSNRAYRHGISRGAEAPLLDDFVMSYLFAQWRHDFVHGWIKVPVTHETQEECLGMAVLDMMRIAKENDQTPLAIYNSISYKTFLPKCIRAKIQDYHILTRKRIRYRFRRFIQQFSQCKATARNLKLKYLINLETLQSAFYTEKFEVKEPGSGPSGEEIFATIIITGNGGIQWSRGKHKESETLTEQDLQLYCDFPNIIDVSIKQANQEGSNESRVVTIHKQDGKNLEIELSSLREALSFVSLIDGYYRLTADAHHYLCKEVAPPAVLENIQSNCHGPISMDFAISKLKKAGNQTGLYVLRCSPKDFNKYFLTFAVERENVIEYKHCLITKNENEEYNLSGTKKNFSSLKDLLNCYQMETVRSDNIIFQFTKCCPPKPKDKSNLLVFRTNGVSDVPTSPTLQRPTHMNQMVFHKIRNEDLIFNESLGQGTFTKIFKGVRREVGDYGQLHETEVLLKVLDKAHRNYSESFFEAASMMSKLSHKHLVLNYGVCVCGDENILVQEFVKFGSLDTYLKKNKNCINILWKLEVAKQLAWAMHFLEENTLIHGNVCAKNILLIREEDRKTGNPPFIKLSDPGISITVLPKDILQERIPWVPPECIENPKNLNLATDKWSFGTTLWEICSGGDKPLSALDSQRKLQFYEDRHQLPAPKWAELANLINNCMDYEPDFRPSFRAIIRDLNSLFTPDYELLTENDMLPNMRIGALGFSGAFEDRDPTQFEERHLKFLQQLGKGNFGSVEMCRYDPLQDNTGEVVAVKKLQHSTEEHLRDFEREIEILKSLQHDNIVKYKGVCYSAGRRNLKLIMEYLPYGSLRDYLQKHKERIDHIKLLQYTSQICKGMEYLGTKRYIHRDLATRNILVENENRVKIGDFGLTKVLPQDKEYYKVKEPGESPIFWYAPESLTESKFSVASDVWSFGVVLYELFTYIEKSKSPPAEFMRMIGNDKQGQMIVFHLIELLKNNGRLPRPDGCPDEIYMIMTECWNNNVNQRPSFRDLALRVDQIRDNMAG
# Method: as §1
# TYK2 = biological target: T4, TYK2 (Homo sapiens, UniProt P29597); assay: as above; type: biochemical; conditions: five-dose singlicate, [ATP] = 10 μM
# T4 construct: purchased Reaction Biology Corporation
# T4 sequence (P29597 whole entry): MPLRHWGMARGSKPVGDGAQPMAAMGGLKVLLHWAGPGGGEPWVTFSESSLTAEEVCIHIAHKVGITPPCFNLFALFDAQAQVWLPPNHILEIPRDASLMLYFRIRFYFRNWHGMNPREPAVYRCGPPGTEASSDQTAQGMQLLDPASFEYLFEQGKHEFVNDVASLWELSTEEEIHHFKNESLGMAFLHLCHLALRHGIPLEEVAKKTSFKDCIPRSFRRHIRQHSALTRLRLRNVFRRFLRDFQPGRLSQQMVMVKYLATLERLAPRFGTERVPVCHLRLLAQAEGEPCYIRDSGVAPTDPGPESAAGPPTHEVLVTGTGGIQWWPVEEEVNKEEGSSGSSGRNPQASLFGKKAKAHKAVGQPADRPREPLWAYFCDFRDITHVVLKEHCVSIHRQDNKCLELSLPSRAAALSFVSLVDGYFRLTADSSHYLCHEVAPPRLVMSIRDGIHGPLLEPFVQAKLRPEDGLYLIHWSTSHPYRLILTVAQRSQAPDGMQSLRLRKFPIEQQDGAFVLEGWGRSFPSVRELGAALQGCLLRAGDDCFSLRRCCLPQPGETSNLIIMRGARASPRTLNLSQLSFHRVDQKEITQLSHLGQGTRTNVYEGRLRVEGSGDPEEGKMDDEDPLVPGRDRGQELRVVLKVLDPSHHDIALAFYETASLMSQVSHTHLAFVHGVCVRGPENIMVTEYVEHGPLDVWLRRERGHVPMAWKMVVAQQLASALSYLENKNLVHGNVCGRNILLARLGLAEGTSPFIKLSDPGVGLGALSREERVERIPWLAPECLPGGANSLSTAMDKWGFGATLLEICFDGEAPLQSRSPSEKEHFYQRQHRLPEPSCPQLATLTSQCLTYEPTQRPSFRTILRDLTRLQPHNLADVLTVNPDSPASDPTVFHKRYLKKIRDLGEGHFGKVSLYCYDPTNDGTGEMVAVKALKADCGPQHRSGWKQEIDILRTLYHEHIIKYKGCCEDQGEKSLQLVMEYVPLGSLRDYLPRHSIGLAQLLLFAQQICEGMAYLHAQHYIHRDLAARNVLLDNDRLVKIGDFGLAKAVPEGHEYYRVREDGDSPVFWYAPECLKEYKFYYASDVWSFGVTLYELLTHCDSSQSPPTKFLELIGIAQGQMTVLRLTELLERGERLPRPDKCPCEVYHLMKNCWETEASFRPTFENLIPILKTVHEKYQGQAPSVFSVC
# Method: as §1
# BMX = biological target: T5, BMX (Homo sapiens, UniProt P51813); assay: as above; type: biochemical; conditions: [ATP] = 10 μM; for remaining activity at 0.2 µM: 200 nM compound, duplicate mean, read-out: Residual Activity @ 200 nM, BMX; for IC50: radiometric HotSpot, five-dose singlicate
# T5 construct: purchased Reaction Biology Corporation
# T5 sequence (P51813 1-675): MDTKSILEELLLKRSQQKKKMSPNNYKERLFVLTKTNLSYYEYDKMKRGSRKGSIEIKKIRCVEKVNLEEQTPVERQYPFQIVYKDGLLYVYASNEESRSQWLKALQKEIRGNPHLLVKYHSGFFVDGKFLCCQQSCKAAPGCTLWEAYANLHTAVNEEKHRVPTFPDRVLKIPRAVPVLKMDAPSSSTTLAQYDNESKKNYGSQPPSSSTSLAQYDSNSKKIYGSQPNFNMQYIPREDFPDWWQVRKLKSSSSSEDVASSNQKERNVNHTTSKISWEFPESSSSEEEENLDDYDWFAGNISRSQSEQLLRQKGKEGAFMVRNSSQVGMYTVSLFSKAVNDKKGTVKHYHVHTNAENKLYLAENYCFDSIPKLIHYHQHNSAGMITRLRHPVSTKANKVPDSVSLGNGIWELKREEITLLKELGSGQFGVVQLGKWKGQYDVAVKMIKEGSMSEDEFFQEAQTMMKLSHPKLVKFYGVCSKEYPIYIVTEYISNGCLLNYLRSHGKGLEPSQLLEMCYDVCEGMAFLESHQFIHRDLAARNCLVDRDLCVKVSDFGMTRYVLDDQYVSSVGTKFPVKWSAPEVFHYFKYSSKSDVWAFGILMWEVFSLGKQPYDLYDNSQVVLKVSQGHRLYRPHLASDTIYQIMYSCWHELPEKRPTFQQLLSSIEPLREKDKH
# Method: as §1
# kinase domain of BMX = biological target: T6, kinase domain of BMX (Homo sapiens, UniProt P51813); assay: Mass spectrometric investigation of covalent binding to BMX (ESI-TOF); conditions: 4 °C; for BMX covalent adduct fraction, 30 min / BMX covalent adduct fraction, 60 min / BMX covalent adduct fraction, 120 min / BMX covalent adduct fraction, 240 min / native (unmodified) BMX fraction, 30 min / native (unmodified) BMX fraction, 60 min / native (unmodified) BMX fraction, 120 min / native (unmodified) BMX fraction, 240 min: 1.5-fold molar excess of inhibitor; for covalent labeling of BMX (in words): complete labeling refers to 30 min
# T6 construct: The kinase domains of JAK3 and BMX at 2 μM
# Method: The kinase domain of BMX was diluted to 0.05 mM with buffer containing 20 mM Tris pH 8.0, 200 mM NaCl, 0.5 mM TCEP (pH 7.0) and was subsequently mixed with 0.075 mM inhibitors (ratio of protein to inhibitor of 1:1.5). The mixture was incubated at 4°C. The samples were taken at different time points, the reaction stopped by diluting the sample with a 200-fold excess of 1% formic acid. The denatured protein and the adducts were assessed using electrospray time-of-flight (ESI-TOF) mass spectrometry.
# T1 sequence (P23458 whole entry): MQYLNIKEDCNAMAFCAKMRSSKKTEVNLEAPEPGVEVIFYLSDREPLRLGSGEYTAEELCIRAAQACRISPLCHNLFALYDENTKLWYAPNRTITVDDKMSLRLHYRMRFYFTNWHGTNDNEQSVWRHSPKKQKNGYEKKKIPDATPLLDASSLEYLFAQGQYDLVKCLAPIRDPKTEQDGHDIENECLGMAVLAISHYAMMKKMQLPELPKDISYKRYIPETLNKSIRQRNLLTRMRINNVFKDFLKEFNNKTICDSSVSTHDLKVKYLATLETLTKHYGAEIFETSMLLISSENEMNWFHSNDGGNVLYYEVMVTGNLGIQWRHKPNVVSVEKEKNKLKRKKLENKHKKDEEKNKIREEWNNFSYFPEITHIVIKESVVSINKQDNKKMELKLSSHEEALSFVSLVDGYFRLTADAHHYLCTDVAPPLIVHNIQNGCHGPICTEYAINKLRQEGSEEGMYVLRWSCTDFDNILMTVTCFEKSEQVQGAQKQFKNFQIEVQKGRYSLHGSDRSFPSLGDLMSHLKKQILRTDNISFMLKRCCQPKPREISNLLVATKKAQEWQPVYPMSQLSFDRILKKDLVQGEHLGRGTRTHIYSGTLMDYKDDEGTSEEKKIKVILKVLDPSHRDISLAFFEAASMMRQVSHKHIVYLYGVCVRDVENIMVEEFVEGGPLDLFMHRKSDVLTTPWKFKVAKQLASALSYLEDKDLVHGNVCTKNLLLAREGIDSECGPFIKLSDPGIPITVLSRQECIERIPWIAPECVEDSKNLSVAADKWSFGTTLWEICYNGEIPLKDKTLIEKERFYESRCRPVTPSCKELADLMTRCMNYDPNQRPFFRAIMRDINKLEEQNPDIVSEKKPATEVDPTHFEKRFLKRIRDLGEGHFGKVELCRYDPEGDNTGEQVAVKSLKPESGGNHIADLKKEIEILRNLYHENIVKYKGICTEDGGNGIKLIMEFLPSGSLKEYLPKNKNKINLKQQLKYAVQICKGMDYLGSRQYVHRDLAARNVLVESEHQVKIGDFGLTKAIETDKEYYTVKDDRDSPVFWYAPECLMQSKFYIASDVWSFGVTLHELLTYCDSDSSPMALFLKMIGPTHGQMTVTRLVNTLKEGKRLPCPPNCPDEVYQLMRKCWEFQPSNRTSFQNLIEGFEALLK
IC50 (JAK1) [µM],remaining activity at 0.2 µM (TEC) [%],IC50 (JAK2) [µM],IC50 (TYK2) [µM],remaining activity at 0.2 µM (BMX) [%],"BMX covalent adduct fraction, 30 min (kinase domain of BMX) [%]","BMX covalent adduct fraction, 60 min (kinase domain of BMX) [%]","BMX covalent adduct fraction, 120 min (kinase domain of BMX) [%]","BMX covalent adduct fraction, 240 min (kinase domain of BMX) [%]",covalent labeling of BMX (in words) (kinase domain of BMX; 1.5-fold molar excess),IC50 (BMX) [µM],"native (unmodified) BMX fraction, 30 min (kinase domain of BMX) [%]","native (unmodified) BMX fraction, 60 min (kinase domain of BMX) [%]","native (unmodified) BMX fraction, 120 min (kinase domain of BMX) [%]","native (unmodified) BMX fraction, 240 min (kinase domain of BMX) [%]",exposure required to approach full target modification (kinase domain of BMX; 1.5-fold molar excess) [min],"IC50 (TEC; radiometric HotSpot, five-dose singlicate) [µM]",SMILES
2.97,37.1,3.58,5.54,2.7,100,100,100,100,complete labeling,,,,,,,,"C=CC(=O)Nc1cccc(-c2c[nH]c3ncccc23)c1 [Compound 9a, N-(3-(1H-pyrrolo[2,3-b]pyridin-3-yl)phenyl)acrylamide]"
0.46,42.1,1.12,1.9,1.6,99,100,100,100,complete labeling,0.029,,,,,,,"C=CC(=O)Nc1cccc(-c2c[nH]c3ncc(C(N)=O)cc23)c1 [Compound 10a, 3-(3-acrylamidophenyl)-1H-pyrrolo[2,3-b]pyridine-5-carboxamide]"
,17.2,,,,100,100,100,100,complete labeling,,,,,,,0.013,"C=CC(=O)Nc1cccc(-c2c[nH]c3ncc(NC(=O)c4cccs4)cc23)c1 [Compound 12c, N-(3-(3-acrylamidophenyl)-1H-pyrrolo[2,3-b]pyridin-5-yl)thiophene-2-carboxamide]"

# Further lines, the compound ahead of its results:
SMILES,IC50 (JAK1) [µM],remaining activity at 0.2 µM (TEC) [%],IC50 (JAK2) [µM],IC50 (TYK2) [µM],remaining activity at 0.2 µM (BMX) [%],"BMX covalent adduct fraction, 30 min (kinase domain of BMX) [%]","BMX covalent adduct fraction, 60 min (kinase domain of BMX) [%]","BMX covalent adduct fraction, 120 min (kinase domain of BMX) [%]","BMX covalent adduct fraction, 240 min (kinase domain of BMX) [%]",covalent labeling of BMX (in words) (kinase domain of BMX; 1.5-fold molar excess),IC50 (BMX) [µM],"native (unmodified) BMX fraction, 30 min (kinase domain of BMX) [%]","native (unmodified) BMX fraction, 60 min (kinase domain of BMX) [%]","native (unmodified) BMX fraction, 120 min (kinase domain of BMX) [%]","native (unmodified) BMX fraction, 240 min (kinase domain of BMX) [%]",exposure required to approach full target modification (kinase domain of BMX; 1.5-fold molar excess) [min],"IC50 (TEC; radiometric HotSpot, five-dose singlicate) [µM]"
"C=CC(=O)Nc1cccc(-c2c[nH]c3ncc(C(=O)NC4CCCC4)cc23)c1 [Compound 11a, 3-(3-acrylamidophenyl)-N-cyclopentyl-1H-pyrrolo[2,3-b]pyridine-5-carboxamide]",,,,,,60,67,89,97,,0.539,40,33,11,3,240,
"CCC(=O)Nc1cccc(-c2c[nH]c3ncc(NC(=O)C4CCCC4)cc23)c1 [Compound 12b, N-(3-(3-propionamidophenyl)-1H-pyrrolo[2,3-b]pyridin-5-yl)cyclopentanecarboxamide]",,99.2,,,,,,,,no modification was detectable,0.582,100,100,100,100,,
